{"source": "patent US20090269798A1", "about": "“METHOD AND SYSTEM FOR SELECTING CHEMOTHERAPEUTIC AGENTS” (UNIVERSITY OF NORTHERN IOWA RESEARCH FOUNDATION, priority 2008, published 2009)", "key": {"[1]": {"tested_on": "Jurkat (human T lymphocytic leukemia)", "conditions": "96 hours, ± standard deviation", "method": "(§1) In the experiments shown in Table1 a/b, the indicated concentrations of hydrogen peroxide were added to the various types of cells and they were incubated for 96 hours until growth was measured by the ^3H-thymidine assay or viability determined by the 3-(4,5-diphenylthiazol-2-yl)-2,5-diphenyltetrazolium bromide (“MTT”) assay. Numbers represent triplicate or quadruplicate determinations."}, "[2]": {"tested_on": "Normal cells", "conditions": "96 hours, ± standard deviation", "method": "as §1"}, "[3]": {"tested_on": "THP-1 (human monocytic leukemia)", "conditions": "96 hours, ± standard deviation", "method": "as §1"}, "[4]": {"tested_on": "K-562 (human erythroleukemia)", "conditions": "96 hours, ± standard deviation", "method": "as §1"}, "[5]": {"tested_on": "YT-INDY (human NK cell leukemia)", "conditions": "96 hours, ± standard deviation", "method": "as §1"}, "[6]": {"tested_on": "Jurkat cells", "conditions": "four-hour exposure, 25 μM H2O2"}}, "note": "Read-outs that look alike come from different tables or passages of the source. Marks after values point to notes of the source that are not given here."}
{"smiles": "OO", "note": "[Hydrogen Peroxide, hydrogen peroxide]", "values": [{"measurement": "amount of cell division remaining (compared to control cells without hydrogen peroxide)", "setting": "[1]; 25 μM hydrogen peroxide", "result": "1.2 ± 0.4"}, {"measurement": "amount of cell division remaining (compared to control cells without hydrogen peroxide)", "setting": "[1]; 50 μM hydrogen peroxide", "result": "2.4 ± 1.1"}, {"measurement": "amount of cell division remaining (compared to control cells without hydrogen peroxide)", "setting": "[1]; 100 μM hydrogen peroxide", "result": "1.3 ± 1.1"}, {"measurement": "amount of cell division remaining (compared to control cells without hydrogen peroxide)", "setting": "[1]; 200 μM hydrogen peroxide", "result": "1.0 ± 0.2"}, {"measurement": "amount of cell division remaining (compared to control cells without hydrogen peroxide)", "setting": "[2]; 25 μM hydrogen peroxide", "result": "68.2 ± 5.4^b"}, {"measurement": "level of live cells remaining (compared to control cells without hydrogen peroxide)", "setting": "[2]; 25 μM hydrogen peroxide", "result": "100.6 ± 3.3^b"}, {"measurement": "amount of cell division remaining (compared to control cells without hydrogen peroxide)", "setting": "[2]; 50 μM hydrogen peroxide", "result": "84.4 ± 12.3"}, {"measurement": "level of live cells remaining (compared to control cells without hydrogen peroxide)", "setting": "[2]; 50 μM hydrogen peroxide", "result": "102.7 ± 5.5"}, {"measurement": "amount of cell division remaining (compared to control cells without hydrogen peroxide)", "setting": "[2]; 100 μM hydrogen peroxide", "result": "92.5 ± 19.9"}, {"measurement": "level of live cells remaining (compared to control cells without hydrogen peroxide)", "setting": "[2]; 100 μM hydrogen peroxide", "result": "89.4 ± 0.9"}, {"measurement": "amount of cell division remaining (compared to control cells without hydrogen peroxide)", "setting": "[2]; 200 μM hydrogen peroxide", "result": "81.9 ± 9.2"}, {"measurement": "level of live cells remaining (compared to control cells without hydrogen peroxide)", "setting": "[2]; 200 μM hydrogen peroxide", "result": "83.0 ± 1.8"}, {"measurement": "amount of cell division remaining (compared to control cells without hydrogen peroxide)", "setting": "[3]; 25 μM hydrogen peroxide", "result": "115.8 ± 10.6"}, {"measurement": "level of live cells remaining (compared to control cells without hydrogen peroxide)", "setting": "[3]; 25 μM hydrogen peroxide", "result": "103.0 ± 2.2"}, {"measurement": "amount of cell division remaining (compared to control cells without hydrogen peroxide)", "setting": "[3]; 50 μM hydrogen peroxide", "result": "102.8 ± 5.9"}, {"measurement": "level of live cells remaining (compared to control cells without hydrogen peroxide)", "setting": "[3]; 50 μM hydrogen peroxide", "result": "101.8 ± 1.8"}, {"measurement": "amount of cell division remaining (compared to control cells without hydrogen peroxide)", "setting": "[3]; 100 μM hydrogen peroxide", "result": "91.0 ± 0.2"}, {"measurement": "level of live cells remaining (compared to control cells without hydrogen peroxide)", "setting": "[3]; 100 μM hydrogen peroxide", "result": "95.6 ± 0.6"}, {"measurement": "amount of cell division remaining (compared to control cells without hydrogen peroxide)", "setting": "[3]; 200 μM hydrogen peroxide", "result": "63.2 ± 7.1"}, {"measurement": "level of live cells remaining (compared to control cells without hydrogen peroxide)", "setting": "[3]; 200 μM hydrogen peroxide", "result": "65.6 ± 2.0"}, {"measurement": "amount of cell division remaining (compared to control cells without hydrogen peroxide)", "setting": "[4]; 25 μM hydrogen peroxide", "result": "41.6 ± 24.5"}, {"measurement": "level of live cells remaining (compared to control cells without hydrogen peroxide)", "setting": "[4]; 25 μM hydrogen peroxide", "result": "58.6 ± 3.2"}, {"measurement": "amount of cell division remaining (compared to control cells without hydrogen peroxide)", "setting": "[4]; 50 μM hydrogen peroxide", "result": "7.1 ± 5.1"}, {"measurement": "level of live cells remaining (compared to control cells without hydrogen peroxide)", "setting": "[4]; 50 μM hydrogen peroxide", "result": "19.6 ± 1.2"}, {"measurement": "amount of cell division remaining (compared to control cells without hydrogen peroxide)", "setting": "[4]; 100 μM hydrogen peroxide", "result": "4.3 ± 2.6"}, {"measurement": "level of live cells remaining (compared to control cells without hydrogen peroxide)", "setting": "[4]; 100 μM hydrogen peroxide", "result": "8.9 ± 0.2"}, {"measurement": "amount of cell division remaining (compared to control cells without hydrogen peroxide)", "setting": "[4]; 200 μM hydrogen peroxide", "result": "2.7 ± 0.3"}, {"measurement": "level of live cells remaining (compared to control cells without hydrogen peroxide)", "setting": "[4]; 200 μM hydrogen peroxide", "result": "8.0 ± 0.4"}, {"measurement": "amount of cell division remaining (compared to control cells without hydrogen peroxide)", "setting": "[5]; 25 μM hydrogen peroxide", "result": "109.2 ± 2.4"}, {"measurement": "level of live cells remaining (compared to control cells without hydrogen peroxide)", "setting": "[5]; 25 μM hydrogen peroxide", "result": "68.2 ± 4.8"}, {"measurement": "amount of cell division remaining (compared to control cells without hydrogen peroxide)", "setting": "[5]; 50 μM hydrogen peroxide", "result": "2.8 ± 0.8"}, {"measurement": "level of live cells remaining (compared to control cells without hydrogen peroxide)", "setting": "[5]; 50 μM hydrogen peroxide", "result": "32.1 ± 2.6"}, {"measurement": "amount of cell division remaining (compared to control cells without hydrogen peroxide)", "setting": "[5]; 100 μM hydrogen peroxide", "result": "3.7 ± 2.5"}, {"measurement": "level of live cells remaining (compared to control cells without hydrogen peroxide)", "setting": "[5]; 100 μM hydrogen peroxide", "result": "29.7 ± 1.0"}, {"measurement": "amount of cell division remaining (compared to control cells without hydrogen peroxide)", "setting": "[5]; 200 μM hydrogen peroxide", "result": "10.2 ± 3.5"}, {"measurement": "level of live cells remaining (compared to control cells without hydrogen peroxide)", "setting": "[5]; 200 μM hydrogen peroxide", "result": "27.5 ± 0.5"}, {"measurement": "killing of Jurkat cells", "setting": "[6]", "result": "significant killing"}]}
